From the kinase profiling compilation of Christmann-Franck et al. (2016)
One block for each compound: values may come before it.

Columns and labels:
Assay in all cases: radiometric filter-binding kinase assay
MYLK (human) = MYLK (human) (UniProt Q15746)
EPHB2 (human) = EPHB2 (human) (UniProt P29323)
TTK (human) = TTK (human) (UniProt P33981)
NEK2 (human) = NEK2 (human) (UniProt P51955)
CLK2 (human) = CLK2 (human) (UniProt P49760)
EPHB4 (human) = EPHB4 (human) (UniProt P54760)
IRAK4 (human) = IRAK4 (human) (UniProt Q9NWZ3)
HIPK2 (human) = HIPK2 (human) (UniProt Q9H2X6)
STK3 (human) = STK3 (human) (UniProt Q13188)
PKN2 (human) = PKN2 (human) (UniProt Q16513)
MAPKAPK2 (human) = MAPKAPK2 (human) (UniProt P49137)
Chain of MAPKAPK2 (human) (P49137 whole entry, looked up): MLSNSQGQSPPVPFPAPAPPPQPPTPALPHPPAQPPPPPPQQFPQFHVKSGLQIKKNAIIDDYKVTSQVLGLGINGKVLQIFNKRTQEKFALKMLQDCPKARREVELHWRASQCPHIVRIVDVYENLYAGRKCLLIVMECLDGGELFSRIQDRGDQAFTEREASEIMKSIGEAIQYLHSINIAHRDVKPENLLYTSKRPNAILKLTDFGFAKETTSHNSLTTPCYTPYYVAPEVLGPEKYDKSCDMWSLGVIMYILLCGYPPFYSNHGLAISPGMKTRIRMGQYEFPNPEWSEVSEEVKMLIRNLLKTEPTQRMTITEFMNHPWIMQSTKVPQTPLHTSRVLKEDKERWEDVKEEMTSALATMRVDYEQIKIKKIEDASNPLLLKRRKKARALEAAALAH

MARK2 (human) = MARK2 (human) (UniProt Q7KZI7)
CHEK2 (human) = CHEK2 (human) (UniProt O96017)
EPHB1 (human) = EPHB1 (human) (UniProt P54762)
PRKCA (human) = PRKCA (human) (UniProt P17252)
EPHA2 (human) = EPHA2 (human) (UniProt P29317)
PIM1 (human) = PIM1 (human) (UniProt P11309)
ROCK2 (rat) = conditions: accession and sequence are those of the human protein
RPS6KA1 KD1 KD2 (human) = RPS6KA1 KD1 KD2 (human) (UniProt Q15418)
DAPK1 (human) = DAPK1 (human) (UniProt P53355)
Chain of DAPK1 (human) (P53355 whole entry, looked up): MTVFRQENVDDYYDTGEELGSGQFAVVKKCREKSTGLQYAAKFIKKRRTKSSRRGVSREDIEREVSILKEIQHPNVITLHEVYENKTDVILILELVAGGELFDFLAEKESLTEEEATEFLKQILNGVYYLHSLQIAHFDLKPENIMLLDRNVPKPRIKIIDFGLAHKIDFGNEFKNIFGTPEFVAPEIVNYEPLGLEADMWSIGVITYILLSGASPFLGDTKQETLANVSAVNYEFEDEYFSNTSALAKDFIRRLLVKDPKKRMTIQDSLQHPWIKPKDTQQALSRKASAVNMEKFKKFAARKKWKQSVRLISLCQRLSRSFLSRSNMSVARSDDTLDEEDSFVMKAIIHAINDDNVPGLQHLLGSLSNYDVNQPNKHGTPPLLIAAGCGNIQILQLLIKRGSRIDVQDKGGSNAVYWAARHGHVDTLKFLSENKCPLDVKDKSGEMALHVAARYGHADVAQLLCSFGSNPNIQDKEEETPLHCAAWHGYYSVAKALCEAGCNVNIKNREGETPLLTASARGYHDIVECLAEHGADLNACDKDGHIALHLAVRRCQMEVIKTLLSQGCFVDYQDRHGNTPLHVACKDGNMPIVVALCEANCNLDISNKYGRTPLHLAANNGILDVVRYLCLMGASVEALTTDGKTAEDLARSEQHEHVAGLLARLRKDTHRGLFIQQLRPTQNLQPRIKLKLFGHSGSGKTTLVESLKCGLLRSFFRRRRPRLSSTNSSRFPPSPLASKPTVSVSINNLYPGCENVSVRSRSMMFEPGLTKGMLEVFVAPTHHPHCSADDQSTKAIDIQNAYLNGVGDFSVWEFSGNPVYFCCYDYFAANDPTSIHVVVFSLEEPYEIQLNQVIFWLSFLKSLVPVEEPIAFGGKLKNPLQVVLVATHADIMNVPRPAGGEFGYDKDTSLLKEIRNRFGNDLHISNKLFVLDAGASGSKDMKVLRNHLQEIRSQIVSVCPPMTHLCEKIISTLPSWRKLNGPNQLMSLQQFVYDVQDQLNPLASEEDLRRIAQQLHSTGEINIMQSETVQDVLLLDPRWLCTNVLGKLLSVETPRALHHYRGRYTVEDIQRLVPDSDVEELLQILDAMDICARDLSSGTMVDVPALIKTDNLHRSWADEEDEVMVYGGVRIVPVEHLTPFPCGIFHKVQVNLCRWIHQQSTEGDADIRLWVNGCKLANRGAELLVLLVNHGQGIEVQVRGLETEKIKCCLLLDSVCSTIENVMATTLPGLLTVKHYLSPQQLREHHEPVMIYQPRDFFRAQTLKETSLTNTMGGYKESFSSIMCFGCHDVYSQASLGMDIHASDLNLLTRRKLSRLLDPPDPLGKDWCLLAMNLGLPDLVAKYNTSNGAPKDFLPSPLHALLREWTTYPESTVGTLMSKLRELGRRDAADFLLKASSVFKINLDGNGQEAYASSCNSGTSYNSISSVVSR

[1] = tested on: RPS6KB1 (human), P23443 [T412E]
DYRK2 (human) = DYRK2 (human) (UniProt Q92630)
DYRK3 (human) = DYRK3 (human) (UniProt O43781)
Chain of DYRK3 (human) (O43781 whole entry, looked up): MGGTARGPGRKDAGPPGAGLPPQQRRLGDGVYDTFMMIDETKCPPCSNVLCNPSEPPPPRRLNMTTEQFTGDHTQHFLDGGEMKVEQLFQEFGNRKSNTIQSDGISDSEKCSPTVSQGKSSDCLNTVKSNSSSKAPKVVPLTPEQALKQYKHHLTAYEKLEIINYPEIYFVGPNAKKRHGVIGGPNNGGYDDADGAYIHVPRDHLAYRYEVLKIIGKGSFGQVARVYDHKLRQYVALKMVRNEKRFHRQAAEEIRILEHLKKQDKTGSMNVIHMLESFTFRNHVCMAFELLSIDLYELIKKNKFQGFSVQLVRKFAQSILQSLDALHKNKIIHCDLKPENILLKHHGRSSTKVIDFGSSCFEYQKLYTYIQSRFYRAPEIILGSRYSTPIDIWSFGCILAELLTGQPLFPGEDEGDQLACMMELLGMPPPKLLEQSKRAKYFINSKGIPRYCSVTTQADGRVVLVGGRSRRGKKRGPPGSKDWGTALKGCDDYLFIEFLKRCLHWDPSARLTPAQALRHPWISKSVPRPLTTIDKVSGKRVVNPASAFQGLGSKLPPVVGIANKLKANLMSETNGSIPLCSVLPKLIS

MARK1 (human) = MARK1 (human) (UniProt Q9P0L2)
GCK (human) = GCK (human) (UniProt Q12851)
MELK (human) = MELK (human) (UniProt Q14680)
Chain of MELK (human) (Q14680 whole entry, looked up): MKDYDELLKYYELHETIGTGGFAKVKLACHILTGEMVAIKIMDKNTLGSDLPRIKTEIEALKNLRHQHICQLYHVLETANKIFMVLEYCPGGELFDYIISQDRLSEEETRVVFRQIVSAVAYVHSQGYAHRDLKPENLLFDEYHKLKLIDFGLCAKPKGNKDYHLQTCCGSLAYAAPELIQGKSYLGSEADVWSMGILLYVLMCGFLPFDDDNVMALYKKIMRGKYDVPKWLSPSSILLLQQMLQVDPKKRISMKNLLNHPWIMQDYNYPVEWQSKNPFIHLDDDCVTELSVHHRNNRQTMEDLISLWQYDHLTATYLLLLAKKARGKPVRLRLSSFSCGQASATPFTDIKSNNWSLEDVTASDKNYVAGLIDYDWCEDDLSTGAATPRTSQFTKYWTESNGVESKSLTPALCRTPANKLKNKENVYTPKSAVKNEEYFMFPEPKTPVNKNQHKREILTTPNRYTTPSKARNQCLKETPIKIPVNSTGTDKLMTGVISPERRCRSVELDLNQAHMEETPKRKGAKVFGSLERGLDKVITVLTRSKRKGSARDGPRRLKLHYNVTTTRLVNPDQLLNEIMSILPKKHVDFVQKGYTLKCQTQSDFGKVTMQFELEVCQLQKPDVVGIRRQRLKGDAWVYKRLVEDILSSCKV

MAPKAPK5 (human) = MAPKAPK5 (human) (UniProt Q8IW41)
MAPK14 (human) = MAPK14 (human) (UniProt Q16539)
FLT1 (human) = FLT1 (human) (UniProt P17948)
[2] = tested on: SGK1 (human), O00141 [S422D]; conditions: compound 1.0 µM
IKBKE (human) = IKBKE (human) (UniProt Q14164)
MAP3K7 TAB1 (human) = MAP3K7 TAB1 (human) (UniProt Q15750+O43318)
PIM3 (human) = PIM3 (human) (UniProt Q86V86)
TAOK1 (human) = TAOK1 (human) (UniProt Q7L7X3)
MAPK12 (human) = MAPK12 (human) (UniProt P53778)

Chain of MYLK (human) (Q15746 whole entry, looked up): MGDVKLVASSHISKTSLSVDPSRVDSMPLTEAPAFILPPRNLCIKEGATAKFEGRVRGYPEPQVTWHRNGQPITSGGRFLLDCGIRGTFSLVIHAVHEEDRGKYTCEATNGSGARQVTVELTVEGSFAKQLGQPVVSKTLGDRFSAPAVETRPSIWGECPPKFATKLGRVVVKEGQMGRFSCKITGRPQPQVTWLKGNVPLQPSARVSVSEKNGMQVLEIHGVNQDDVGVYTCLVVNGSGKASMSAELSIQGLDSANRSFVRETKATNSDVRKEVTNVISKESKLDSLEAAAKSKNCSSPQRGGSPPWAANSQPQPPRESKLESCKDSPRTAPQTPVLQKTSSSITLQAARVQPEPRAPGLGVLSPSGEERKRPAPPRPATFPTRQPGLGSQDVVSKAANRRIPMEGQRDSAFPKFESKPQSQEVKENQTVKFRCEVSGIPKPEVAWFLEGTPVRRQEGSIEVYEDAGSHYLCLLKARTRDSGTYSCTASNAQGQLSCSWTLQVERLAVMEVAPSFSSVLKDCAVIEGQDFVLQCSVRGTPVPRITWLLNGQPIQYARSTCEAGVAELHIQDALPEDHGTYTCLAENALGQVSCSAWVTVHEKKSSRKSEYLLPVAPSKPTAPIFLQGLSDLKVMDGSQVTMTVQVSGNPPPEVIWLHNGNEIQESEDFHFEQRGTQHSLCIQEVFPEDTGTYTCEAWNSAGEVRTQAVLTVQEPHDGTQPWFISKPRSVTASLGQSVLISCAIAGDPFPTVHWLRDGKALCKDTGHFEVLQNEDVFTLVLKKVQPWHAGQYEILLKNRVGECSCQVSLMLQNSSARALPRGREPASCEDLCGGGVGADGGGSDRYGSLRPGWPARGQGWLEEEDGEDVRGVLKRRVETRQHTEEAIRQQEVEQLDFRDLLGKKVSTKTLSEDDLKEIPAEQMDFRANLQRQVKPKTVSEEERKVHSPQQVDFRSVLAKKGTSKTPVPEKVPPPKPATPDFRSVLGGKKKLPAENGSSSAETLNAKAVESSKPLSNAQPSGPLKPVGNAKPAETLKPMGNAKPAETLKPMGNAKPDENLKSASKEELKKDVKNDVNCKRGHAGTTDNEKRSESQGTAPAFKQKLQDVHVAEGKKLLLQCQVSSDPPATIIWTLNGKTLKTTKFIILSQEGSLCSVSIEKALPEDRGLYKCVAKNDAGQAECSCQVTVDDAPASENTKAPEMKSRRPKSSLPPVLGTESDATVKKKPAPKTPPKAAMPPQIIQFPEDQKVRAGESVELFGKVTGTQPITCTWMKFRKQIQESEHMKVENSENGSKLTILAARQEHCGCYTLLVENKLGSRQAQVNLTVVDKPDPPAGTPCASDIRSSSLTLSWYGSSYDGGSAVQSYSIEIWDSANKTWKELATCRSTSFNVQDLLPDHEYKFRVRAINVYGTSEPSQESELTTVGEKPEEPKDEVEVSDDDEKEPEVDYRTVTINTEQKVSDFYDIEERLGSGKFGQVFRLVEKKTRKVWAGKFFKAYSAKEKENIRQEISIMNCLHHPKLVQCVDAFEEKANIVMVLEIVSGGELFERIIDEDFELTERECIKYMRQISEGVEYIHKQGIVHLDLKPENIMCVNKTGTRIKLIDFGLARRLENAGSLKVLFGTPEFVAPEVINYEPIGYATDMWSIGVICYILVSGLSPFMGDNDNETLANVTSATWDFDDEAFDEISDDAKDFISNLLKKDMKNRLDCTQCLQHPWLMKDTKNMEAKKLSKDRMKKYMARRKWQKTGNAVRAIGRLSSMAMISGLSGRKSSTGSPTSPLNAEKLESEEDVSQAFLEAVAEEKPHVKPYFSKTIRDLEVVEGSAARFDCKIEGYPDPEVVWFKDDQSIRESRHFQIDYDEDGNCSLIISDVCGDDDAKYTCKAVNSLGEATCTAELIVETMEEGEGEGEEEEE

- residual activity (MYLK (human); compound 1.0 µM): 89%
- residual activity (MYLK (human); compound 10.0 µM): 61%
- residual activity (EPHB2 (human); compound 1.0 µM): 62%
- residual activity (EPHB2 (human); compound 10.0 µM): 50%
- residual activity (TTK (human); compound 1.0 µM): 83%
- residual activity (NEK2 (human); compound 1.0 µM): 41%
- residual activity (NEK2 (human); compound 10.0 µM): 39%
- residual activity (CLK2 (human); compound 10.0 µM): 18%
- residual activity (EPHB4 (human); compound 1.0 µM): 94%
- residual activity (EPHB4 (human); compound 10.0 µM): 82%
- residual activity (IRAK4 (human); compound 1.0 µM): 13%
- residual activity (IRAK4 (human); compound 10.0 µM): 6%
- residual activity (HIPK2 (human); compound 1.0 µM): 49%
- residual activity (HIPK2 (human); compound 10.0 µM): 32%
- residual activity (STK3 (human); compound 1.0 µM): 19%
- residual activity (STK3 (human); compound 10.0 µM): 7%
- residual activity (PKN2 (human); compound 1.0 µM): 63%
- residual activity (PKN2 (human); compound 10.0 µM): 64%
- residual activity (MAPKAPK2 (human); compound 1.0 µM): 99%
- residual activity (MAPKAPK2 (human); compound 10.0 µM): 85%
- residual activity (MARK2 (human); compound 1.0 µM): 39%
- residual activity (MARK2 (human); compound 10.0 µM): 35%
- residual activity (CHEK2 (human); compound 1.0 µM): 19%
- residual activity (CHEK2 (human); compound 10.0 µM): 19%
- residual activity (EPHB1 (human); compound 1.0 µM): 79%
- residual activity (EPHB1 (human); compound 10.0 µM): 95%
- residual activity (PRKCA (human); compound 1.0 µM): 96%
- residual activity (PRKCA (human); compound 10.0 µM): 88%
- residual activity (EPHA2 (human); compound 1.0 µM): 66%
- residual activity (EPHA2 (human); compound 10.0 µM): 53%
- residual activity (PIM1 (human); compound 1.0 µM): 94%
- residual activity (PIM1 (human); compound 10.0 µM): 71%
- residual activity (ROCK2 (rat); compound 1.0 µM): 93%
- residual activity (ROCK2 (rat); compound 10.0 µM): 61%
- residual activity (RPS6KA1 KD1 KD2 (human); compound 1.0 µM): 50%
- residual activity (RPS6KA1 KD1 KD2 (human); compound 10.0 µM): 28%
- residual activity (DAPK1 (human); compound 1.0 µM): 54%
- residual activity (DAPK1 (human); compound 10.0 µM): 51%
- residual activity ([1]; compound 1.0 µM): 87%
- residual activity ([1]; compound 10.0 µM): 66%
- residual activity (DYRK2 (human); compound 1.0 µM): 84%
- residual activity (DYRK2 (human); compound 10.0 µM): 72%
- residual activity (DYRK3 (human); compound 1.0 µM): 75%
- residual activity (DYRK3 (human); compound 10.0 µM): 82%
- residual activity (MARK1 (human); compound 1.0 µM): 33%
- residual activity (MARK1 (human); compound 10.0 µM): 31%
- residual activity (GCK (human); compound 1.0 µM): 24%
- residual activity (GCK (human); compound 10.0 µM): 8%
- residual activity (MELK (human); compound 1.0 µM): 84%
- residual activity (MELK (human); compound 10.0 µM): 59%
- residual activity (MAPKAPK5 (human); compound 1.0 µM): 101%
- residual activity (MAPK14 (human); compound 1.0 µM): 91%
- residual activity (MAPK14 (human); compound 10.0 µM): 85%
- residual activity (FLT1 (human); compound 1.0 µM): 15%
- residual activity (FLT1 (human); compound 10.0 µM): 23%
- residual activity [2]: 105%
- residual activity (IKBKE (human); compound 1.0 µM): 9%
- residual activity (IKBKE (human); compound 10.0 µM): 6%
- residual activity (MAP3K7 TAB1 (human); compound 1.0 µM): 100%
- residual activity (MAP3K7 TAB1 (human); compound 10.0 µM): 70%
- residual activity (PIM3 (human); compound 1.0 µM): 90%
- residual activity (PIM3 (human); compound 10.0 µM): 73%
- residual activity (TAOK1 (human); compound 1.0 µM): 61%
- residual activity (TAOK1 (human); compound 10.0 µM): 27%
Structure (SMILES): COc1cc2ncn(-c3cc(OCc4ccccc4S(C)(=O)=O)c(C#N)s3)c2cc1OC

- residual activity (MYLK (human); compound 0.1 µM): 96%
- residual activity (MYLK (human); compound 1.0 µM): 85%
- residual activity (EPHB2 (human); compound 0.1 µM): 101%
- residual activity (EPHB2 (human); compound 1.0 µM): 103%
- residual activity (TTK (human); compound 0.1 µM): 83%
- residual activity (TTK (human); compound 1.0 µM): 77%
- residual activity (NEK2 (human); compound 0.1 µM): 93%
- residual activity (CLK2 (human); compound 0.1 µM): 49%
- residual activity (CLK2 (human); compound 1.0 µM): 18%
- residual activity (EPHB4 (human); compound 0.1 µM): 105%
- residual activity (EPHB4 (human); compound 1.0 µM): 109%
- residual activity (IRAK4 (human); compound 0.1 µM): 86%
- residual activity (IRAK4 (human); compound 1.0 µM): 88%
- residual activity (MAPK12 (human); compound 0.1 µM): 90%
- residual activity (MAPK12 (human); compound 1.0 µM): 103%
- residual activity (HIPK2 (human); compound 0.1 µM): 85%
- residual activity (HIPK2 (human); compound 1.0 µM): 46%
- residual activity (STK3 (human); compound 0.1 µM): 83%
- residual activity (STK3 (human); compound 1.0 µM): 64%
- residual activity (PKN2 (human); compound 0.1 µM): 99%
- residual activity (PKN2 (human); compound 1.0 µM): 92%
- residual activity (MAPKAPK2 (human); compound 0.1 µM): 91%
- residual activity (MAPKAPK2 (human); compound 1.0 µM): 106%
- residual activity (MARK2 (human); compound 0.1 µM): 94%
- residual activity (MARK2 (human); compound 1.0 µM): 85%
- residual activity (CHEK2 (human); compound 0.1 µM): 89%
- residual activity (CHEK2 (human); compound 1.0 µM): 73%
- residual activity (EPHB1 (human); compound 0.1 µM): 93%
- residual activity (EPHB1 (human); compound 1.0 µM): 86%
- residual activity (PRKCA (human); compound 0.1 µM): 89%
- residual activity (PRKCA (human); compound 1.0 µM): 97%
- residual activity (EPHA2 (human); compound 0.1 µM): 110%
- residual activity (EPHA2 (human); compound 1.0 µM): 125%
- residual activity (PIM1 (human); compound 0.1 µM): 97%
- residual activity (PIM1 (human); compound 1.0 µM): 114%
- residual activity (ROCK2 (rat); compound 0.1 µM): 89%
- residual activity (ROCK2 (rat); compound 1.0 µM): 71%
- residual activity (DAPK1 (human); compound 0.1 µM): 90%
- residual activity (DAPK1 (human); compound 1.0 µM): 83%
- residual activity ([1]; compound 0.1 µM): 88%
- residual activity ([1]; compound 1.0 µM): 112%
- residual activity (DYRK2 (human); compound 1.0 µM): 56%
- residual activity (DYRK3 (human); compound 0.1 µM): 81%
- residual activity (DYRK3 (human); compound 1.0 µM): 79%
- residual activity (MARK1 (human); compound 0.1 µM): 91%
- residual activity (MARK1 (human); compound 1.0 µM): 80%
- residual activity (GCK (human); compound 0.1 µM): 45%
- residual activity (GCK (human); compound 1.0 µM): 20%
- residual activity (MELK (human); compound 0.1 µM): 71%
- residual activity (MELK (human); compound 1.0 µM): 48%
- residual activity (MAPKAPK5 (human); compound 0.1 µM): 96%
- residual activity (MAPKAPK5 (human); compound 1.0 µM): 85%
- residual activity (MAPK14 (human); compound 0.1 µM): 98%
- residual activity (MAPK14 (human); compound 1.0 µM): 113%
- residual activity (FLT1 (human); compound 0.1 µM): 59%
- residual activity (FLT1 (human); compound 1.0 µM): 32%
- residual activity [2]: 105%
- residual activity (IKBKE (human); compound 0.1 µM): 97%
- residual activity (IKBKE (human); compound 1.0 µM): 98%
- residual activity (MAP3K7 TAB1 (human); compound 0.1 µM): 67%
- residual activity (MAP3K7 TAB1 (human); compound 1.0 µM): 39%
- residual activity (PIM3 (human); compound 0.1 µM): 97%
- residual activity (PIM3 (human); compound 1.0 µM): 84%
- residual activity (TAOK1 (human); compound 0.1 µM): 96%
Structure (SMILES): CN(C)C/C=C/C(=O)Nc1cccc(C(=O)Nc2ccc(Nc3nccc(-c4cccnc4)n3)cc2)c1
